The text below walks through data of article PMC4467398, “Preclinical antitumor activity of ST7612AA1: a new oral thiol-based histone deacetylase (HDAC) inhibitor” (Oncotarget, 2014).

The AUC(0-inf) is the area under the concentration-time curve extrapolated to infinity. The low end stands for less exposure, the high end for more exposure. In general, CL/F refers to the apparent clearance, not corrected for the fraction that reaches the circulation. Broadly, the Tmax is the time from dosing to the highest level. For orientation: half-life means the time needed for the level to fall by half in the phase considered. For orientation: AUC(0-t) means exposure summed from dosing to a finite time, without extrapolation to infinity. High values mean more exposure, low ones less exposure. As a reminder, the Cmax is the peak of the concentration-time curve. The term IC50 denotes the concentration that inhibits the measured activity by half.

In series [1] the test system is acetylation of histone H4 in NCI-H460 NSCLC cells. Briefly: Western blot with densitometry, histone H4 acetylation. In kind it is cell-based, human. As to conditions: 5 µM; NCI-H460; vehicle 0,0274. On the procedure: (§1) For assessing the in vitro effect of ST7612AA1 on acetylation of α-tubulin and histones, NSCLC cells were treated with the test compound at various concentrations (dose-response curve). SAHA 5 μM was used as reference inhibitor. Protein extraction, separation and immunoblotting were performed as previously described. Immunoreactive bands were finally subjected to densitometry analysis by a phosphoimaging system (STORM, Molecular Dynamics), and then the IC50 values were calculated by the “ALLFIT” computer program. The antibodies used are listed in Supplementary Table 2.

The test system of series [2] is acetylation of alpha-tubulin in NCI-H460 NSCLC cells. Put plainly: Western blot with densitometry, tubulin acetylation. The class given is cell-based, human. As to conditions: 5 µM; NCI-H460; vehicle 0,341. As for the experimental part: as §1
On the technique in general: Immunoblotting shows a protein as a band on a membrane.

Series [3] is described as follows: PK sampling and analysis after a single oral dose of ST7612AA1 (plasma, LC-MS/MS). To be noted: ST7464AA1 in plasma, single oral dose of 120 mg/kg of ST7612AA1. In kind it is in vivo, CD1 mice. On the procedure:
CD1 nude mice were used. Male mice were treated with a single dose of ST7612AA1 at 120 mg/10 mL/kg p.o., using 5% Solutol HS 15 in water for injection as vehicle. Blood samples were collected at 0.25, 0.5, 1, 2, 4 and 6 h post treatment from 5 animals per time point. Levels of ST7612AA1 and ST7464AA1 were determined in plasma by quantitative LC-MS/MS having a limit of quantification of 25 ng/mL. The PK parameters Cmax (maximum plasma concentration), Tmax (time of maximum plasma concentration), Clast (last quantifiable concentration), Tlast (time of last quantifiable plasma concentration), AUClast (area under the concentration vs time curve from 0 to Tlast), AUCINF (area under the concentration vs time curve from 0 to infinity), T1/2 (terminal half-life), CL/F (apparent systemic clearance) and Vz/F (apparent terminal volume of distribution) were derived from the analyte plasma concentration vs time data according to a model independent approach for sparse data sampling by using Phoenix WinNonlin® ver. 6.3 software (Pharsight, Cetara).

For another series, the system named is HDAC1. More on the design: method as in PMID 25233084. To be noted: cited from earlier work.
The next series deals with HDAC2. More on the design: method as in PMID 25233084. To be noted: cited from earlier work.
The next series relates to HDAC3. More on the design: method as in PMID 25233084. To be noted: mean of IC50 on HDAC3 and 6; cited from earlier work.
In a further series the test system is HDAC6. More on the design: method as in PMID 25233084. To be noted: cited from earlier work.
For a further series, the system named is HDAC8. More on the design: method as in PMID 25233084. As to conditions: cited from earlier work.
Details of series [4]: method as in PMID 25233084. To be noted: mean of IC50 on HDAC1, 10 and 11; cited from earlier work.
The subject of a further series is HDAC11. More on the design: method as in PMID 25233084. To be noted: mean of IC50 on HDAC1, 10 and 11; cited from earlier work.
[5] abbreviates: male, CD1 nude, mouse, mean ± SEM.

Values joined by “and” are separate entries in the source; they are usually repeats but may differ in a detail not shown here. Equal values may be shown once. Read-outs that look alike come from different tables or passages of the source.

Consider `O=C(CCCCCCC(=O)Nc1ccccc1)NO` [SAHA, suberoylanilide hydroxamic acid, reference compound], for which the “Acetyl H4/H4” value in [1] is on record as 0,1537. Moreover, in series [2], the Acetyl tub./tubulin is recorded as 2,617.
In the case of `O=C1CC[C@H](C(=O)N[C@@H](CCCCCS)C(=O)Nc2ccccc2)N1` [ST7464AA1], the Tlast in series [3] stood at 6.0 h. In [3] (male, CD1 nude, mouse), this molecule came in with an AUC(0-inf) of 5510 ng·h/mL. The molecule also gave a CL/F in series [3] (male, CD1 nude, mouse) of 363 mL/min/kg. Besides, the Tmax in series [3] (male, CD1 nude, mouse) was determined as 0.5 h. In series [3] (male, CD1 nude, mouse), the half-life was 3.8 h. For the same molecule, the AUC(0-t) in series [3] (setting [5]) stood at 3750 ± 299 ng·h/mL. Moreover, the Cmax in series [3] (setting [5]) was 1580 ± 478 ng/mL. In series [3] (male, CD1 nude, mouse, read-out: Clast), the concentration at 6 h amounted to 303 ng/mL. Also, in series [3] (male, CD1 nude, mouse, read-out: Vz/F), the Vd/F was 119 L/kg. For the same molecule, the IC50 in the series on HDAC1 (HDAC1) was 12.7 nM; in the series on HDAC1 (mean of IC50 on HDAC1, 10 and 11), 13 nM; in the series with HDAC2 it was 77.7 nM and 78 nM; in the series with HDAC3, 4 nM; in the series with HDAC6 (HDAC6), 3.18 nM; with HDAC6 (mean of IC50 on HDAC3 and 6), 4 nM. Also, the IC50 with HDAC8 was 281 nM; in series [4], 13 nM; with HDAC11 it was 13 nM.
